Data taken from ChEMBL document CHEMBL1201862, “PubChem BioAssay data set” (2004).
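All cell lines were grown in 96-well plates and treated with compound for 48 hours. At the GI50, growth is halved.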 Calls of active or inactive are those of the source. Rule as the data show it: active = GI50 up to about 1.1 µM and inactive = higher.

What was measured:
Experiment in all cases: NCI anticancer screen, dose series, 48 h
[1] = system: DLD-1
[2] = system: KM-20L2
[3] = system: RXF 631
[4] = system: XF498
[5] = system: DMS-273
[6] = system: M19-MEL
[7] = system: LXFL 529
[8] = system: SNB-78
[9] = system: HOP-18

SMILES | GI50 [1] | GI50 [2] | GI50 [3] | GI50 [4] | GI50 [5] | GI50 [6] | GI50 [7] | GI50 [8] | GI50 [9]
c1coc(CNc2[nH]cnc3nncc2-3)c1 | > 100 µM (inactive) | > 100 µM (inactive) | > 100 µM (inactive) | > 100 µM (inactive) | > 100 µM (inactive) | > 100 µM (inactive) | > 100 µM (inactive) | > 100 µM (inactive) | –
Cc1ccc(C(=O)O/N=C2/CCC/C2=C\c2ccccc2)cc1 | > 100 µM (inactive) | > 100 µM (inactive) | – | – | > 100 µM (inactive) | > 100 µM (inactive) | > 100 µM (inactive) | > 100 µM (inactive) | > 100 µM (inactive)
COc1ccc(/C=C/C(=O)c2sc(Nc3ccc([N+](=O)[O-])cc3)nc2C)cc1 | 29.1 µM (inactive) | 48.6 µM (inactive) | 34.2 µM (inactive) | – | 41.1 µM (inactive) | 53.1 µM (inactive) | – | 46.2 µM (inactive) | 78.2 µM (inactive)
Cn1c(CBr)nc2c1C(=O)c1nc(CBr)[nH]c(=O)c1C2=O | > 100 µM (inactive) | 46.1 µM (inactive) | > 100 µM (inactive) | – | – | 26.8 µM (inactive) | 53.7 µM (inactive) | – | > 100 µM (inactive)
C#CCN(N=O)C(=O)NCCCC(NC(C)=O)C(=O)NCc1ccccc1 (stereo not drawn) | > 100 µM (inactive) | > 100 µM (inactive) | > 100 µM (inactive) | 0.0526 µM (active) | – | > 100 µM (inactive) | > 100 µM (inactive) | > 100 µM (inactive) | > 100 µM (inactive)
COc1cc2c(cc1OC)[C@H]1CN3CCC[C@H]3C=C1c1ccc(OC)c(O)c1-2 | < 0.0001 µM (active) | < 0.0001 µM (active) | – | < 0.0001 µM (active) | < 0.0001 µM (active) | < 0.0001 µM (active) | < 0.0001 µM (active) | < 0.0001 µM (active) | < 0.0001 µM (active)
CN1c2c(O)nc(N)nc2NCC1CCNc1ccc(C(=O)NC(CCC(=O)O)C(=O)O)cc1 (stereo not drawn) | 891 µM (inactive) | 573 µM (inactive) | – | 394 µM (inactive) | 15.1 µM (inactive) | 222 µM (inactive) | – | 1130 µM (inactive) | 1550 µM (inactive)
CCCCCCCC(=O)OC(CBr)COC(=O)C(C)(C)C (stereo not drawn) | > 100 µM (inactive) | > 100 µM (inactive) | > 100 µM (inactive) | > 100 µM (inactive) | > 84.5 µM (inactive) | > 84.1 µM (inactive) | > 100 µM (inactive) | > 100 µM (inactive) | > 100 µM (inactive)
CC(C)(C)OP(=O)(OC(C)(C)C)C(O)c1ccc(/C=C(\C#N)C(N)=O)cc1 (stereo not drawn) | > 100 µM (inactive) | > 100 µM (inactive) | – | > 100 µM (inactive) | > 100 µM (inactive) | > 100 µM (inactive) | > 100 µM (inactive) | > 100 µM (inactive) | –
OCC[N+]12CCCN1CCC2 | > 100 µM (inactive) | > 100 µM (inactive) | – | – | > 100 µM (inactive) | > 100 µM (inactive) | > 100 µM (inactive) | > 100 µM (inactive) | > 100 µM (inactive)
O=[N+]([O-])c1cccc2nc3ccccc3c(NCCN(CCO)CCO)c12 | 0.0069 µM (active) | 0.00509 µM (active) | 0.00457 µM (active) | 0.00512 µM (active) | 0.012 µM (active) | – | 0.0187 µM (active) | 0.0221 µM (active) | 0.0443 µM (active)
N#C/C(=C1\SC(/N=N/c2ccc(Cl)cc2)C(=O)N1c1ccccc1)c1nc2ccccc2[nH]1 (stereo not drawn) | > 100 µM (inactive) | > 100 µM (inactive) | – | 31.3 µM (inactive) | 36.8 µM (inactive) | 28.1 µM (inactive) | 24.6 µM (inactive) | 42.1 µM (inactive) | –
O=S(=O)(O)c1ccc(/N=N/c2nc(C(F)(F)F)c(C(F)(F)F)[nH]2)cc1 | 43.5 µM (inactive) | 76.7 µM (inactive) | 30.8 µM (inactive) | 17.2 µM (inactive) | > 100 µM (inactive) | 39.2 µM (inactive) | 87.3 µM (inactive) | 96.2 µM (inactive) | 25.5 µM (inactive)
COc1ccc(/C(=N/NC(=O)NN)C(c2ccc(OC)cc2)C2(O)CNc3c(Cl)cc(Cl)cc32)cc1 (stereo not drawn) | > 100 µM (inactive) | > 100 µM (inactive) | 48.3 µM (inactive) | – | – | > 100 µM (inactive) | 65.6 µM (inactive) | > 100 µM (inactive) | 53.2 µM (inactive)
O=C1C=C(Br)C(=O)C(Br)=C1 | > 96.6 µM (inactive) | > 100 µM (inactive) | > 100 µM (inactive) | > 100 µM (inactive) | > 100 µM (inactive) | > 53.5 µM (inactive) | 54.5 µM (inactive) | > 100 µM (inactive) | > 100 µM (inactive)
COc1ccc(N2C(=O)C3c4[nH]c5ccccc5c4C4CCCCCCCCCCC4C3C2=O)cc1 (stereo not drawn) | 8.77 µM (inactive) | 3.15 µM (inactive) | – | 12.9 µM (inactive) | 6.31 µM (inactive) | 25.1 µM (inactive) | 6.93 µM (inactive) | – | 3.03 µM (inactive)
Cc1ccc(S(=O)(=O)NC(=O)C2S(=O)(=O)OCCOS2(=O)=O)cc1 | > 100 µM (inactive) | – | > 100 µM (inactive) | > 100 µM (inactive) | > 100 µM (inactive) | > 100 µM (inactive) | > 100 µM (inactive) | > 100 µM (inactive) | –
CCOC(=O)c1[nH]c(COC(C)=O)c2c1CCCCCCCCCC2 | > 100 µM (inactive) | > 100 µM (inactive) | – | > 100 µM (inactive) | > 100 µM (inactive) | > 100 µM (inactive) | > 100 µM (inactive) | > 100 µM (inactive) | > 100 µM (inactive)
COc1cc2c(cc1C1=NC(C)(C)CO1)OCO2 | > 100 µM (inactive) | > 100 µM (inactive) | > 100 µM (inactive) | > 100 µM (inactive) | – | > 100 µM (inactive) | > 100 µM (inactive) | – | > 100 µM (inactive)
CN(C)c1ccc(/C=c2\sc3nnc(-c4cccnc4)n3c2=O)cc1 | > 100 µM (inactive) | > 100 µM (inactive) | – | > 100 µM (inactive) | > 100 µM (inactive) | > 100 µM (inactive) | > 100 µM (inactive) | > 100 µM (inactive) | > 100 µM (inactive)
CC(C)=CC(=O)c1c(C(=O)O)nc2ccccc2[n+]1[O-] | > 100 µM (inactive) | > 100 µM (inactive) | > 100 µM (inactive) | – | > 100 µM (inactive) | > 100 µM (inactive) | > 100 µM (inactive) | > 100 µM (inactive) | –
COc1cccc(OC)c1/C=N\N1C(=O)c2ccccc2C1=O | 49 µM (inactive) | 19.2 µM (inactive) | 29.4 µM (inactive) | 28.6 µM (inactive) | 21.1 µM (inactive) | 48.4 µM (inactive) | 40.7 µM (inactive) | 59.4 µM (inactive) | > 100 µM (inactive)
CSc1nc(NC2OCC(OC(C)=O)C(OC(C)=O)C2OC(C)=O)c(/N=C\C=N\c2c(NC3OCC(OC(C)=O)C(OC(C)=O)C3OC(C)=O)nc(SC)n(C)c2=O)c(=O)n1C (stereo not drawn) | > 100 µM (inactive) | > 100 µM (inactive) | – | – | > 100 µM (inactive) | > 100 µM (inactive) | > 100 µM (inactive) | – | > 100 µM (inactive)
C=CC[P@@]1(=O)O[C@H](c2ccccc2)C(C)N1C(C)C (stereo partly drawn) | > 100 µM (inactive) | – | > 100 µM (inactive) | > 100 µM (inactive) | > 100 µM (inactive) | > 100 µM (inactive) | > 100 µM (inactive) | > 100 µM (inactive) | > 100 µM (inactive)
COc1cc(/C=C/c2ccc(OC(C)=O)cc2)cc(OC)c1OC | 32.3 µM (inactive) | 33.7 µM (inactive) | 11.6 µM (inactive) | – | 26.9 µM (inactive) | 39.9 µM (inactive) | 29.3 µM (inactive) | 35.1 µM (inactive) | 55.3 µM (inactive)
COc1cc(/C=C\c2ccccc2)cc(OC)c1OC | 3.19 µM (inactive) | 1.64 µM (inactive) | 8.87 µM (inactive) | 3.9 µM (inactive) | 1.24 µM (inactive) | 5.31 µM (inactive) | 6.56 µM (inactive) | 7.83 µM (inactive) | > 36.8 µM (inactive)
